Source: PMC3132048, “Treatment of experimental adjuvant arthritis with a novel folate receptor-targeted folic acid-aminopterin conjugate” (Arthritis Research & Therapy, 2011)
Marks after values point to notes of the source that are not given here.

Legend:
[1] = system: adjuvant-induced arthritis; test: Rat adjuvant-induced arthritis (AIA) model; type: in vivo; conditions: for Body weight change (%): day 24 relative to day 10
Protocol: The rats were then inoculated intradermally (at the base of tail) with 0.5 mg heat-killed M. butyricum (BD Diagnostic Systems) in 100 μl light mineral oil (Sigma-Aldrich, St Louis, MO, USA). […] For each study, two or three rats from the same colony were not induced for arthritis and were used as healthy controls.
Unless noted otherwise, all drug treatments started on day 10 after arthritis induction and lasted for two consecutive weeks with biweekly (BIW, Mondays and Thursdays) or once-weekly (QW, Mondays) dosing regimens.
EC0746 was given subcutaneously (s.c.) in a dosing range of 25 to 1,000 nmol/kg (QW or BIW); MTX was given s.c. or orally at 250 nmol/kg (BIW) or 1,650 nmol/kg (QW); and etanercept (10 mg/kg) was given s.c. once every 3 days for a 12-day span. The QW MTX dosing regimen was to mimic MTX administration in humans, and this particular dose of 1,650 nmol/kg per week (that is, 0.75 mg/kg per week) was reportedly active as an intraperitoneal agent in the AIA model. To distinguish the anti-inflammatory mechanisms of EC0746 and MTX in vivo, a therapeutically irrelevant folate-containing competitor (EC0923, molecular weight 672) was used in 500-fold molar excess to block the activities of EC0746 and MTX at 250 nmol/kg (BIW).
Formalin-fixed hind paws were examined by a board-certified veterinary radiologist who had no knowledge of the study groups. Specific criteria were used to establish a numerical grade of severity for each radiographic change: increased soft tissue volume (0 to 4), narrowing or widening of joint spaces (0 to 5), subchondral erosion (0 to 3), periosteal reaction (0 to 4), osteolysis (0 to 4), subluxation (0 to 3), and degenerative joint changes (0 to 3). Scores are limited to the tarsus, and the maximum possible score per foot was 26 [39]. The histopathological analysis was also performed in a blind fashion by an independent contract laboratory (Bolder BioPATH Inc., Boulder, CO, USA). The arthritic ankles were scored on a scale of 0 to 5 for inflammation, bone resorption, pannus formation, and cartilage damage, with a maximal histology score of 20 per foot.

[2] = system: TNFα production in RAW264.7 cells; test: LPS-stimulated TNFα production (ELISA); type: cell-based, murine; conditions: RAW264.7 macrophages, data not shown
Protocol: (§1) RAW264.7 cells in 96-well plates (3.5 × 10^4 cells/well) were treated with 10-fold serial dilutions of EC0746 (≤1 μM) in FFRPMI medium without and with 100-fold molar excess of FA. After a 2-hour exposure, the drug-containing media were replaced and the cells were allowed to incubate further for 70 hours (referred in the text as a 70-hour chase). In comparison, the cells were also treated continuously with AMT for 72 hours. Four hours prior to the end of incubation, LPS was added to the treated cells at a final concentration of 100 ng/ml. Then 100 μl culture supernatants were collected for TNFα analysis by ELISA. The cell viability was assessed by adding XTT to the remaining media for an additional 4 hours following the manufacturer's instructions. To evaluation of a cytostatic effect, RAW264.7 cells seeded at 1 × 10^6 cells/well in six-well plates were subjected to 2-hour exposure and a 70-hour chase with 0, 0.1, 10, and 1000 nM EC0746 without and with excess FA. At the end of the incubation (no LPS added), the surviving cells (that is, still viable cells) were recovered and redistributed in equal numbers in fresh medium for an additional 72 hours. The cell proliferation was again assessed by the XTT assay. All results were expressed as the percentage absorbance (minus background) relative to the untreated control cells.

[3] = Plasma pharmacokinetics after single subcutaneous dose; type: in vivo, rat; conditions: female, Lewis, rat, plasma, sc, after single s.c. dose of unconjugated AMT 500 nmol/kg
Protocol: Female Lewis rats with jugular vein catheters (Harlan Sprague Dawley) were used to assess the plasma pharmacokinetics of EC0746 and unconjugated AMT. The animals were divided into two main groups, one given a single dose of EC0746 s.c. and the second a single dose of AMT s.c., both at 500 nmol/kg. Whole blood samples (300 μl) were collected from three animals per time point at the following time points: 1 minute, 10 minutes, 30 minutes, 1 hour, 2 hours, 3 hours, 4 hours, and 8 hours after injection. The blood samples were placed into anticoagulant tubes containing 1.7 mg/ml K3EDTA and 0.35 mg/ml N-maleoyl-β-alanine (0.35 mg/ml) in a 0.15% acetic acid solution. Plasma samples were obtained by centrifugation for 3 minutes at ~2,000 × g and stored at -80°C. The amounts of EC0746 and AMT in the plasma and the two primary metabolites of EC0746 (AMT and AMT hydrazide) were determined by liquid chromatography/mass spectrometry/mass spectrometry.

arthritis = system: arthritis; parameters: method as in PMID 16170572; conditions: murine arthritis; cited from earlier work
[4] = target: T1, FRα (FRα-expressing KB cells) (Homo sapiens, UniProt P15328); test: Relative affinity assay: displacement of [3H]FA from KB cells; type: binding; conditions: 37°C, competitor of [3H]FA, inverse molar ratio to displace 50%
T1 construct: both KB cells and CHO-FRβ cells were used as the sources of FR; endogenous in cells; host or cells: KB cells
Protocol: (§2) The relative affinities of EC0746, AMT, and MTX were determined according to a previously established method except that both KB cells and CHO-FRβ cells were used as the sources of FR [33]. KB cells are a human cancer cell line known for elevated expression of FRα. CHO-FRβ cells were obtained from Manohar Ratnam, Department of Biochemistry and Cancer Biology, The University of Toledo (Toledo, OH, USA). This cell line was originally generated by stable integration and amplification of a human FRβ cDNA expression construct in CHO-K1 cells.

air-pouch inflammation = system: air-pouch inflammation; parameters: method as in PMID 16170572; conditions: murine air-pouch inflammation; cited from earlier work
[5] = Preliminary short-term toxicity / MTD in folate-deficient healthy rats; type: in vivo, rat; conditions: rat, in vivo, sc; healthy rats on folate-deficient diet, four s.c. doses in 2 weeks; read-out: Maximum tolerated dose (MTD)
Protocol: The short-term toxicity and MTD of EC0746 and AMT were evaluated in healthy rats following the standard BIW subcutaneous dosing regimen used for efficacy studies. Further, these animals were put on a folate-deficient diet for ~20 days before treatment to match the folate deficiency status of AIA rats used for therapy. The folate-deficient but nonarthritic animals were thus given increasing doses of EC0746 and AMT for two consecutive weeks on a BIW basis. […] Standard hematologic and blood chemistry parameters were examined as needed along with histopathology.

RAW264.7 cells = type: cell-based, murine; conditions: RAW264.7 macrophages, data not shown
Protocol: as §1

rat TG-macs = test: Viability of thioglycollate-elicited peritoneal macrophages; type: cell-based; conditions: 72-hour incubation; no effect at concentrations as high as stated
Protocol: Female Lewis rats (175 to 200 g) were purchased from Harlan Sprague Dawley (Indianapolis, IN, USA) and were allowed to acclimate for 1 week. To obtain peritoneal macrophages, rats were dosed intraperitoneally with an aged thioglycollate (TG) medium (20 ml/kg) and euthanized 3 days later. The peritoneal cavity of the animals was lavaged with 60 ml ice-cold phosphate-buffered saline to collect peritoneal exudate. The TG-elicited macrophages in the peritoneal fluids were obtained after a red cell lysing step and a 2-hour adherence in folate-free RPMI 1640 medium (Mediatech, Manassas, VA, USA) containing 1% heat-activated fetal calf serum and antibiotics. The purity of the resulting macrophage population (herein referred to as rat TG-macs) was determined to be ~90% pure based on CD11b/c expression (data not shown). […] Unless otherwise specified, all cells were maintained in the folate-free RPMI 1640 medium containing 10% heat-activated fetal calf serum and antibiotics (FFRPMI) under a 5% CO2 atmosphere.
Unlike RAW264.7 cells, rat TG-macs display little proliferative activity ex vivo and therefore were used in our studies to represent inflammatory macrophages in a low proliferative state. […] LPS (5 μg/ml) and IFNγ (100 ng/ml) were then added to the treated cells 24 hours prior to the end of incubation to stimulate the release of cytokines/chemokines, which were then detected with a rat cytokine antibody array.

[6] = oral exposure, mice; cited from earlier work
[7] = target: T2, human FRβ (CHO-FRβ cells) (Homo sapiens, UniProt P14207); test: Relative affinity assay: displacement of [3H]FA from CHO-FRβ cells; type: binding; conditions: 37°C, competitor of [3H]FA, inverse molar ratio to displace 50%
T2 construct: host or cells: CHO-K1 cells
Protocol: as §2

[8] = parameters: method as in PMID 10726889; conditions: rats, 0.1 mg/kg; cited from earlier work
[9] = target: T3, dihydrofolate reductase (DHFR) (Mus musculus, UniProt P00375); test: Dihydrofolate reductase inhibition assay in RAW264.7 whole cell lysates; type: cell-based, murine; conditions: FA alone 10 μM, 2-hour pulse, 22-hour chase
T3 construct: endogenous in cells; host or cells: RAW264.7 cells (FR-positive subclone of ATCC TIB71)
T3 sequence (P00375 1-187): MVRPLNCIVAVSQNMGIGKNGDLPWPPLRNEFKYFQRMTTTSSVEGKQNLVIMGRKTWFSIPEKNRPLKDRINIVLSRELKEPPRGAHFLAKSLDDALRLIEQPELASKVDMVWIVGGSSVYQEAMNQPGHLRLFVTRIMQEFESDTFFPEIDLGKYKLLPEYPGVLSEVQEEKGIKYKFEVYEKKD
Protocol: RAW264.7 cells growing in FFRPMI medium in 10 cm cell culture dishes (BD Falcon, Lincoln Park, NJ, USA) were treated with EC0746 (100 nM), EC0746 (100 nM) plus 100-fold molar excess of FA (10 μM), or FA alone (10 μM). After a 2-hour exposure, the drug-containing media were replaced and the cells were allowed to incubate further for 22 hours in fresh FFRPMI medium (referred in the text as a 22-hour chase). Meanwhile, AMT and MTX were kept at 100 nM for the entire 24-hour incubation period. All cells were subsequently lysed in the radioimmunoprecipitation assay lysis buffer, and DHFR activities in the whole cell lysates were determined using a commercial DHFR assay kit (Sigma-Aldrich). This spectrophotometric assay monitors the enzymatic conversion of dihydrofolic acid to tetrahydrofolic acid by DHFR and the disappearance of the co-factor nicotinamide adenine dinucleotide phosphate at 340 nm. The results were normalized to the values of the untreated control cells.

[10] = s.c., 125 μmol/kg biweekly, alone
[11] = s.c., 1,650 nmol/kg once weekly
[12] = s.c., 10 mg/kg on days 10, 13, 16, 19, 22

T2 sequence (P14207 17-255): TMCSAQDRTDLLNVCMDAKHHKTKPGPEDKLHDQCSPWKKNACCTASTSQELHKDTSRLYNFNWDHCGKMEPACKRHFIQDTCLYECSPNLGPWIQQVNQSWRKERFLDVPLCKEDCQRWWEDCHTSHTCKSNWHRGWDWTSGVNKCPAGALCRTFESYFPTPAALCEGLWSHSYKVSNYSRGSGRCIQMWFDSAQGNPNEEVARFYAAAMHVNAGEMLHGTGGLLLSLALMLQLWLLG
T1 sequence (P15328 25-257): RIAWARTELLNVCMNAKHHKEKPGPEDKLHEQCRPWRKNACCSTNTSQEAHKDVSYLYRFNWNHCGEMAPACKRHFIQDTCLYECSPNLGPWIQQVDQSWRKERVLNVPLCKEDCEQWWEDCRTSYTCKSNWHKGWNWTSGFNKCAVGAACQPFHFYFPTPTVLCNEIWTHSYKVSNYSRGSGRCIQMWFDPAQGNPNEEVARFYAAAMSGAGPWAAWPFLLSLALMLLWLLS

## Nc1nc2ncc(CNc3ccc(C(=O)N[C@@H](CCC(=O)N[C@H](CC(=O)O)C(=O)N[C@H](CC(=O)O)C(=O)O)C(=O)O)cc3)nc2c(=O)[nH]1 [EC0923, pteroyl-γGlu-d-Asp-d-Asp, reference compound]
[1]; [10]
  Impact on development or severity of arthritis: did not have any impact
  Radiographic analysis of arthritic paws: significant joint erosions

## Nc1nc(N)c2nc(CNc3ccc(C(=O)N[C@@H](CCC(=O)O)C(=O)O)cc3)cnc2n1 [AMT, aminopterin]
[2]
  Potency in inhibition of LPS-stimulated TNFα production, AMT versus AMT hydrazide: equally potent
[3]; 500 nmol/kg, read-out: Time to maximum concentration (converted)
  Tmax: ~0.5 h
[3]; read-out: Area under the curve (converted)
  AUC: 1.02 µM·h
[3]; read-out: Elimination half-life
  half-life: ~2.33 h
[3]; read-out: Maximum concentration in plasma
  Cmax: 601 nM
arthritis
  Potency relative to MTX: ~ 20 fold
[4]
  Relative affinity value (FA = 1): 0.004
air-pouch inflammation
  Potency relative to MTX: ~ 40 fold
[5]
  MTD at 2 weeks: 0.05 µmol/kg
RAW264.7 cells
  Potency in inhibition of cell proliferation, AMT versus AMT hydrazide: equally potent
[1]; unmodified AMT mixed with FA (1:1), 500 nmol/kg s.c. biweekly, after one or two doses, severe anemia and gastrointestinal distress
  Tolerability in AIA rats: all animals treated with the simple mixture had to be euthanized
Rat TG-macs
  Concentration affecting TG-macs viability: > 10 µM
[6]
  Acute 50% lethal dose: 3 mg/kg
[7]
  Relative affinity value (FA = 1): 0.004

## CN(Cc1cnc2nc(N)nc(N)c2n1)c1ccc(C(=O)N[C@@H](CCC(=O)O)C(=O)O)cc1 [MTX, methotrexate, reference compound]
[4]
  Relative affinity value (FA = 1): 0.018
[8]
  Oral bioavailability: 21%
[1]; oral, 250 nmol/kg biweekly
  Decrease in summed histology score: 73%
  Reduction in dorsal to ventral paw thickness: 63%
[1]; oral, 1,650 nmol/kg (0.75 mg/kg) once weekly
  Weight loss due to disease progression: ~ 10%
[1]; p.o., 250 nmol/kg biweekly from day 10
  Splenomegaly (percentage increase in spleen weight relative to healthy rats): 42 ± 17%
[1]; p.o., 250 nmol/kg biweekly from day 10, paw weight day 24
  Inhibition in paw edema (%): 70 ± 5%
[1]; p.o., 250 nmol/kg biweekly
  Body weight change (%): -14 ± 2%
[1]; p.o., 1,650 nmol/kg once weekly, calculated based on arthritis scores on day 24
  Inhibition in paw edema (%): 47 ± 10^f %
[1]; p.o., 1,650 nmol/kg once weekly
  Body weight change (%): -10 ± 2%
[1]; s.c., 250 nmol/kg biweekly from day 10
  Splenomegaly (percentage increase in spleen weight relative to healthy rats): 24 ± 3%
[1]; s.c., 250 nmol/kg biweekly from day 10, paw weight day 24
  Inhibition in paw edema (%): 78 ± 10%
[1]; s.c., 250 nmol/kg biweekly plus EC0923 125 μmol/kg, P > 0.05
  Anti-arthritic activity in presence of EC0923 competitor: not significantly blocked
[1]; s.c., 250 nmol/kg biweekly
  Body weight change (%): -2 ± 4%
[1]; [11]
  Weight loss: ~ 7%
  Body weight change (%): -7 ± 8%
[1]; s.c., 1,650 nmol/kg once weekly, calculated based on arthritis scores on day 24
  Inhibition in paw edema (%): 63 ± 13^f %
Rat TG-macs
  Concentration affecting TG-macs viability: > 10 µM
[6]
  Acute 50% lethal dose: 89 mg/kg
[7]
  Relative affinity value (FA = 1): 0.005

## Etanercept
[1]; s.c., 10 mg/kg every 3 days
  Splenomegaly (percentage increase in spleen weight relative to healthy rats): 42 ± 7%
  Body weight change (%): -15 ± 2%
[1]; s.c., 10 mg/kg every 3 days, calculated based on arthritis scores on day 24
  Inhibition in paw edema (%): 46 ± 9^f %
[1]; [12]
  Decrease in summed histology score: 43%
  Reduction in bone resorption (histology): 55%
  Reduction in dorsal to ventral paw thickness: 40%
  Reduction in inflammation (histology): 42%

## Nc1nc(=O)c2nc(CNc3ccc(C(=O)N[C@@H](CCC(=O)O)C(=O)O)cc3)cnc2[nH]1 [FA, folic acid]
[9]
  Effect on DHFR activity of cells: benign
